The values below come from patent publication US10766928B2, “Targeted conformationally-constrained kinked endosomal disrupting peptides” (priority 2012, dated 2020).

Series [1] relates to endosomes of Jurkat lymphocytes. Kind of series: Endosome disruption in Jurkat lymphocytes: release of carboxyfluorescein from disulfide probe Compound 2, flow cytometry. The note with it: for Efficacy (% of max. 1): % change in cellular fluorescence relative to maximal response of Compound 1 (100%); for Efficacy (% of max. 1) / Efficacy (% of 1): Jurkat; for Efficacy (% of 1): % of the effect of compound 1, calculated span of dose-response curve, ± standard deviation; for Endosome disruption activity (in words): Jurkat endosome disruption assay. The protocol: (§1) The effects of the compounds of the invention on human Juikat leukemia cells were evaluated using flow cytometry-based assays of potency, efficacy, and toxicity. […] Analysis of flow cytometry data by non-linear regression was used to determine IC50 values for potency with the efficacy expressed as a percentage. […] Dose-dependent effects on cellular viability after 48 h at 37° C. in culture were also measured by flow cytometry.
(§2) The # represents the compound number in accordance with Tables A, B, and C. Concentrations of compound stock solutions were determined by absorbance measurements at 280 nm. Efficacy was determined as % change in cellular fluorescence relative to the maximal response of Compound 1, defined as 100%. Potencies and efficacies in Jurkat lymphocytes were measured by flow cytometry after treatment of cells with the compounds listed and the fluorescent probe Compound 2 (2.5 μM) for 14 hours. Toxicity to this cell line was determined by flow cytometry analysis of light scattering and counterstaining with PI after treatment for 48 h at 37° C. in culture. […] N.D., not determined.
Cells were treated with fluorescent molecular probe Compound 2 (2.5 μM) and endosome disruptors for 14 hours at 37° C. Enhanced cellular fluorescence resulting from release of the pH-sensitive fluorophore Compound 3 into the cytoplasm was quantified by flow cytometry.
Natural amino acids are represented by single letter codes. Codes for non-standard elements are as follows: Ch1: (3β-Cholest-5-en-3-yl-ammonio)pentanoyl; Ch2: (Cholester-3-yl)oxy-βAla-βAla; X: ε-Ahx; U: Aib; PB: Pacific Blue fluorophore. O: 3-(2-(2-(2-aminoethoxy)ethoxy)ethoxy)propanyl.

Another series has as its system Jurkat lymphocytes. The settings on record: 48 h. As for the experimental part:
as §1, §2

The nature of series [2]: Thermodynamic solubility in PBS (pH 7.4). Type of series: physicochemical. The settings on record: phosphate buffered saline. The source says: Values in parentheses represent 95% confidence intervals. N.D., not determined.
Measurements represent duplicate or more replicates, with active peptides subjected to multiple replicates. ND: not determined. The peptide was non-toxic and soluble in cell culture medium at this concentration.

[3] abbreviates: pH 7.4, Table 3, PBS pH 7.4, 24 h at 22° C., read-out: Solubility.

Converted amounts (≈) assume the structure as drawn. Read-outs that look alike come from different tables or passages of the source. Non-standard residues stand in square brackets, D forms with d. Residues, ends and D or L forms follow the SMILES beside them. *: point of attachment. Pentanoyl(5-NH-cholesteryl) = CC(C)CCC[C@@H](C)[C@H]1CC[C@H]2[C@@H]3CC=C4C[C@@H](NCCCCC(=O)*)CC[C@]4(C)[C@H]3CC[C@]12C; Aib = CC(C)(N)C(=O)O; Ahx = NCCCCCC(=O)O; βAla = NCCC(=O)O

Consider `CC(C)CCC[C@@H](C)[C@H]1CC[C@H]2[C@@H]3CC=C4C[C@@H](NCCCCC(=O)NCCC(=O)N[C@@H](CCC(=O)O)C(=O)N[C@@H](CCC(=O)O)C(=O)NCCCCCC(=O)NC(C)(C)C(=O)NC(C)(C)C(=O)NC(C)(C)C(=O)N[C@@H](Cc5c[nH]c6ccccc56)C(=O)N[C@@H](C)C(=O)N[C@@H](C)C(=O)N[C@@H](Cc5ccc(O)cc5)C(=O)N[C@@H](Cc5c[nH]c6ccccc56)C(=O)N5CCC[C@H]5C(=O)N5CCC[C@H]5C(=O)N[C@H](C(=O)N[C@@H](C)C(N)=O)C(C)C)CC[C@]4(C)[C@H]3CC[C@]12C` [Compound 13, R = BEEXUUUWAAYWPPVA-CONH2] ({Pentanoyl(5-NH-cholesteryl)-βAla}-EE[Ahx][Aib][Aib][Aib]WAAYWPPVA-NH2), for which, in series [1] (14 h), the EC50 turned out to be 0.7 µM. In the series with Jurkat lymphocytes, this compound had an IC50 of 16 µM.

As for `CC(C)[C@H](NC(=O)[C@@H](NC(=O)[C@@H]1CCCN1C(=O)[C@@H]1CCCN1C(=O)[C@H](Cc1c[nH]c2ccccc12)NC(=O)[C@H](Cc1ccc(O)cc1)NC(=O)[C@H](C)NC(=O)[C@H](Cc1c[nH]c2ccccc12)NC(=O)[C@H](C)NC(=O)C(C)(C)NC(=O)C(C)(C)NC(=O)C(C)(C)NC(=O)C(C)(C)N)C(C)C)C(N)=O` [Compound 45] (H-[Aib][Aib][Aib][Aib]AWAYWPPVV-NH2), in series [1] (Table 1, 14 hours), the “Efficacy (% of max. 1)” value is on record as <<50%. Besides, in series [1] (Table 2, 14 h), the “Efficacy (% of 1)” value is less than 10%. Moreover, in series [2] (setting [3]), the solubility thermodynamic at 24 h is 86 ± 5 µM (≈ 123 µg/mL).

For `CC(C)[C@H](NC(=O)[C@@H](NC(=O)[C@@H]1CCCN1C(=O)[C@H](C)NC(=O)[C@H](Cc1c[nH]c2ccccc12)NC(=O)[C@H](Cc1ccc(O)cc1)NC(=O)[C@H](C)NC(=O)[C@H](Cc1c[nH]c2ccccc12)NC(=O)[C@H](Cc1c[nH]c2ccccc12)NC(=O)C(C)(C)NC(=O)C(C)(C)NC(=O)C(C)(C)NC(=O)C(C)(C)N)C(C)C)C(N)=O` [Compound 49] (H-[Aib][Aib][Aib][Aib]WWAYWAPVV-NH2), the “Efficacy (% of max. 1)” value in series [1] (Table 1, 14 hours) is listed as 45%. Besides, the “Efficacy (% of 1)” value in series [1] (Table 2, 14 h) is recorded as 35 ± 2%. For the same compound, in series [1] (read-out: Potency (EC50), Table 1, Jurkat lymphocytes, probe Compound 2 (2.5 μM), 14 hours, 95% confidence interval in neighbouring cell), the EC50 was determined as 12 µM. In addition, the solubility thermodynamic at 24 h in series [2] (setting [3]) was 21 ± 2 µM (≈ 31.9 µg/mL).

Consider `CC(C)[C@H](NC(=O)[C@@H](NC(=O)[C@@H]1CCCN1C(=O)[C@@H]1CCCN1C(=O)[C@H](Cc1c[nH]c2ccccc12)NC(=O)[C@H](Cc1ccc(O)cc1)NC(=O)[C@H](C)NC(=O)[C@H](C)NC(=O)[C@H](Cc1c[nH]c2ccccc12)NC(=O)C(C)(C)NC(=O)C(C)(C)NC(=O)C(C)(C)NC(=O)C(C)(C)N)C(C)C)C(N)=O` [Compound 46] (H-[Aib][Aib][Aib][Aib]WAAYWPPVV-NH2), for which, in series [1] (Table 1, 14 hours), the “Efficacy (% of max. 1)” value is listed as <<50%. For the same compound, the “Efficacy (% of 1)” value in series [1] (Table 2, 14 h) is less than 10%. Also, the solubility thermodynamic at 24 h in series [2] (setting [3]) was 86 ± 5 µM (≈ 123 µg/mL).

In the case of `CC(C)[C@H](NC(=O)[C@@H](NC(=O)[C@H](C)NC(=O)[C@@H]1CCCN1C(=O)[C@H](Cc1c[nH]c2ccccc12)NC(=O)[C@H](Cc1ccc(O)cc1)NC(=O)[C@H](C)NC(=O)[C@H](Cc1c[nH]c2ccccc12)NC(=O)[C@H](Cc1c[nH]c2ccccc12)NC(=O)C(C)(C)NC(=O)C(C)(C)NC(=O)C(C)(C)NC(=O)C(C)(C)N)C(C)C)C(N)=O` [Compound 50] (H-[Aib][Aib][Aib][Aib]WWAYWPAVV-NH2), the “Endosome disruption activity (in words)” value in series [1] is given as “substantial activity”. In addition, the “Efficacy (% of max. 1)” value in series [1] (Table 1, 14 hours) is listed as 71%. Further, in series [1] (Table 2, 14 h), the “Efficacy (% of 1)” value was 54 ± 3%. In addition, the EC50 in series [1] (read-out: Potency, Table 2, EC50 ± standard deviation, Jurkat lymphocytes, disulfide-linked fluorescent probe (2.5 μM), 14 h) turned out to be 9 ± 3 µM. Further, in series [2] (setting [3]), the solubility thermodynamic at 24 h came out at 22 ± 2 µM (≈ 33.4 µg/mL).

For the compound “Ac-SSAWWSYWPPVA-NH2 [Compound 39, reference compound]”, the “Endosome disruption activity (in words)” value in series [1] is “devoid of biological activity”. Moreover, the “Efficacy (% of max. 1)” value in series [1] (Table 1, 14 hours) was <<50%. Moreover, the “Efficacy (% of 1)” value in series [1] (Table 2, 14 h) is recorded as less than 2%. The solubility thermodynamic at 24 h in series [2] (pH 7.4, Table 1, PBS pH 7.4, 24 hours at 22° C., ±S.D., read-out: Solubility (aq.)) came to 173 ± 11 µM; in series [2] (setting [3]), 137 ± 8 µM.

For orientation: IC50 means the concentration needed to halve the response being measured. A higher IC50 goes with weaker potency in that assay.
